According to patent publication US20020054861A1, “Method of preparing particularly skin-compatible cosmetic or dematological cleansing preparations” (priority 1999, published 2002):

Test system: skin (inner sides of the forearms)
Test: Adsorption of lauryl ether sulfate on the skin in a simulated washing operation (forearm, desorption with Triton X-100, ion-pair chromatography)
Format: in vivo, human
Procedure: The method which we have developed for determining the adsorption of lauryl ether sulfate on the skin simulates a washing operation as occurs, for example, during daily showering: Firstly, the inner sides of the forearms are divided into a number of test areas using insulating tape. The area to be treated is then wetted with approximately 50 ml of mains wafer (T=38±1° C.). The lauryl ether sulfate is then applied. Throughout the application period of 45 s, the test subject distributes the lauryl ether sulfate over the area using 2 fingers in uniform circular movements. At the end of the application period, the test area is rinsed with approximately 950 ml of mains water (T=38±1° C.) and carefully patted dry using a clean cellulose cloth. For the desorption, a plastic ring with an internal diameter of 25 mm is pressed firmly onto the inner side of the test subject's forearm. 1000 μl of a 1% Triton X-100 solution are then introduced into the ring. The tip of a round Teflon-coated spatula is then used to scrape the skin uniformly for 1 min. This leads to suspension of corneocytes. To work up the samples for analysis, the samples are centrifuged and 800 μl of the supernatant are drawn off. The supernatant is analyzed with regard to its lauryl ether sulfate content using ion-pair chromatography. The effectiveness of the desorption method described is 79%, i.e. 79% of the amount of lauryl ether sulfate actually present on the skin are included.

[1] = cosurfactant concentration 3%, added to a lauryl ether sulfate solution

| Compound | Effect on the adsorbed amount of lauryl ether sulfate (reduction) [1] | also measured |
| --- | --- | --- |
| CCCCCCCCCCO[C@@H]1O[C@H](CO)[C@@H](O)[C@H](O)[C@H]1O [Decyl glucoside] |  | Effect on the adsorbed amount of lauryl ether sulfate (reduction) (cosurfactant concentration 5%, added to a lauryl ether sulfate solution): Reduction by 29% |
| CCCCCCCCCCCC(=O)O [Lauric acid] |  | Effect on the adsorbed amount of lauryl ether sulfate (reduction) (cosurfactant concentration 1%, pH9, added to a lauryl ether sulfate solution): Reduction by 15% |
| cocamidopropylbetaine | Reduction by 31% |  |
| disodium laureth sulfosuccinate | Reduction by 28% |  |
| sodium cocoamphoacetate | Reduction by 27% |  |
